The values below come from PubChem BioAssay AID248 (DTP/NCI, 2004).

This assay relates to L1210 leukemia ip in BDF1 mice, survival T/C. Briefly: NCI In Vivo Anticancer Drug Screen. Data for tumor model L1210 Leukemia (intraperitoneal) in B6D2F1 (BDF1) mice. Particulars: endpoint: mean survival time, higher = longer survival. The method in brief:
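Transplantable tumor model; survival measured in treated vs vehicle control mice. Value = treated/control.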

Setting [1] is: dose: 100.0 mg/kg/injection, schedule: Q04DX002 (ip), vehicle: Klucel (hydroxypropylcellulose) (HPC).
[2] abbreviates: dose: 200.0 mg/kg/injection, schedule: Q04DX002 (ip), vehicle: Klucel (hydroxypropylcellulose) (HPC).
[3] abbreviates: dose: 400.0 mg/kg/injection, schedule: Q04DX002 (ip), vehicle: Klucel (hydroxypropylcellulose) (HPC).
The mark [4] stands for this setting: dose: 100.0 mg/kg/injection, schedule: Q01DX001 (ip), vehicle: saline.
Where [5] appears, read: dose: 200.0 mg/kg/injection, schedule: Q01DX001 (ip), vehicle: saline.
Setting [6] is: dose: 400.0 mg/kg/injection, schedule: Q01DX001 (ip), vehicle: saline.
The mark [7] stands for this setting: dose: 100.0 mg/kg/injection, schedule: Q01DX009 (ip), vehicle: Klucel (hydroxypropylcellulose) (HPC).
Setting [8] is: dose: 100.0 mg/kg/injection, schedule: Q04DX003 (ip), vehicle: Klucel (hydroxypropylcellulose) (HPC).
The mark [9] stands for this setting: dose: 200.0 mg/kg/injection, schedule: Q01DX009 (ip), vehicle: Klucel (hydroxypropylcellulose) (HPC).
The mark [10] stands for this setting: dose: 200.0 mg/kg/injection, schedule: Q04DX003 (ip), vehicle: Klucel (hydroxypropylcellulose) (HPC).
Where [11] appears, read: dose: 400.0 mg/kg/injection, schedule: Q01DX009 (ip), vehicle: Klucel (hydroxypropylcellulose) (HPC).
The mark [12] stands for this setting: dose: 400.0 mg/kg/injection, schedule: Q04DX003 (ip), vehicle: Klucel (hydroxypropylcellulose) (HPC).
Where [13] appears, read: dose: 100.0 mg/kg/injection, schedule: Q01DX009 (ip), vehicle: saline with Tween-80.
[14] abbreviates: dose: 200.0 mg/kg/injection, schedule: Q01DX009 (ip), vehicle: saline with Tween-80.
[15] abbreviates: dose: 400.0 mg/kg/injection, schedule: Q01DX009 (ip), vehicle: saline with Tween-80.

Several values for one entry are separate records, joined by “and”; a condition that tells them apart may be missing. Equal values may be shown once. Inconclusive results and toxic doses are left out.

For the molecule `O=C(O)c1ccc(CCCCBr)cc1`, the T/C by setting is: under setting [1], 96 % of control; under setting [2], 100 % of control; under setting [3], 96 % of control.
In the case of `CCCCCC1(O)C2CCCC1CCC2` (centres undefined), the T/C was 94 % of control (dose: 100.0 mg/kg/injection, schedule: Q04DX003 (ip), vehicle: saline with Tween-80); 97 % of control (dose: 200.0 mg/kg/injection, schedule: Q04DX003 (ip), vehicle: saline with Tween-80); 105 % of control (dose: 400.0 mg/kg/injection, schedule: Q04DX003 (ip), vehicle: saline with Tween-80).
On to `N=C(N)SC1c2ccccc2-c2ccccc21`, for which the T/C was 97 % of control (dose: 10.0 mg/kg/injection, schedule: Q04DX002 (ip), vehicle: Klucel (hydroxypropylcellulose) (HPC)); 101 % of control (dose: 20.0 mg/kg/injection, schedule: Q04DX002 (ip), vehicle: Klucel (hydroxypropylcellulose) (HPC)); 101 % of control (dose: 40.0 mg/kg/injection, schedule: Q04DX002 (ip), vehicle: Klucel (hydroxypropylcellulose) (HPC)).
As for `CC(C)(C)CC(C)(C)N(CSc1ccc(Cl)cc1)CSc1ccc(Cl)cc1`, the T/C is 100 % of control under setting [4], 93 % of control under setting [5] and 87 % of control under setting [6].
In the case of `CC[N+](C)(CC)CCCN1C(=O)c2ccccc2S1(=O)=O`, the T/C is 94 % of control (dose: 22.0 mg/kg/injection, schedule: Q01DX Z (ip), vehicle: methylcellulose (MC)); 96 % of control (dose: 33.0 mg/kg/injection, schedule: Q01DX Z (ip), vehicle: methylcellulose (MC)); 91 % of control (dose: 50.0 mg/kg/injection, schedule: Q01DX Z (ip), vehicle: methylcellulose (MC)).
In the case of `O=[N+]([O-])c1ccc(C(Br)C(Br)c2ccccc2Cl)cc1` (centres undefined), the T/C by setting is: under setting [7], 96 % of control; under setting [8], 110 % of control; under setting [9], 98 % of control; under setting [10], 100 % of control; under setting [11], 93 % of control; under setting [12], 94 % of control.
Regarding `CC(=O)c1cccc(NC(=O)Nc2nccs2)c1`, the T/C runs as follows: (dose: 100.0 mg/kg/injection, schedule: Q01DX001 (ip), vehicle: Klucel (hydroxypropylcellulose) (HPC)) 100 % of control; under setting [7], 101 % of control and 92 % of control; under setting [1], 101 % of control and 91 % of control; under setting [8], 101 % of control; (dose: 200.0 mg/kg/injection, schedule: Q01DX001 (ip), vehicle: Klucel (hydroxypropylcellulose) (HPC)) 104 % of control; under setting [9], 104 % of control. The T/C by setting is: under setting [2], 104 % of control and 109 % of control; under setting [10], 103 % of control; (dose: 400.0 mg/kg/injection, schedule: Q01DX001 (ip), vehicle: Klucel (hydroxypropylcellulose) (HPC)) 96 % of control; under setting [11], 109 % of control and 88 % of control; under setting [3], 96 % of control; under setting [12], 96 % of control.
On to `CN(Cc1cnc2nc(N)nc(N)c2n1)c1cc(Cl)c(C(=O)NC(CCC(=O)O)C(=O)O)c(Cl)c1` (centres undefined), for which the T/C by setting is: (dose: 25.0 mg/kg/injection, schedule: Q01DX009 (ip), vehicle: sodium bicarbonate) 106 % of control; (dose: 50.0 mg/kg/injection, schedule: Q01DX009 (ip), vehicle: sodium bicarbonate) 107 % of control; (dose: 100.0 mg/kg/injection, schedule: Q01DX009 (ip), vehicle: sodium bicarbonate) 622 % of control; (dose: 200.0 mg/kg/injection, schedule: Q01DX009 (ip), vehicle: sodium bicarbonate) 120 % of control.
In the case of `c1nc2c([nH]1)CCCCC2`, the T/C was 100 % of control (dose: 12.5 mg/kg/injection, schedule: Q01DX001 (ip), vehicle: saline with Tween-80); 97 % of control (dose: 25.0 mg/kg/injection, schedule: Q01DX001 (ip), vehicle: saline with Tween-80); 104 % of control and 106 % of control (dose: 25.0 mg/kg/injection, schedule: Q01DX009 (ip), vehicle: other); 99 % of control and 110 % of control (dose: 25.0 mg/kg/injection, schedule: Q04DX002 (ip), vehicle: other); 100 % of control (dose: 50.0 mg/kg/injection, schedule: Q01DX001 (ip), vehicle: saline with Tween-80); 101 % of control and 88 % of control (dose: 50.0 mg/kg/injection, schedule: Q01DX009 (ip), vehicle: other). Moreover, the T/C is, setting by setting: (dose: 50.0 mg/kg/injection, schedule: Q04DX002 (ip), vehicle: other) 105 % of control and 113 % of control; (dose: 100.0 mg/kg/injection, schedule: Q04DX002 (ip), vehicle: other) 100 % of control and 103 % of control.
For the molecule `CCCNCCCSCc1ccccc1`, the T/C was 111 % of control (dose: 50.0 mg/kg/injection, schedule: Q01DX001 (ip), vehicle: saline) and 103 % of control under setting [4].
With `C[N+](C)(C)Cn1nnc2ccccc21`, the T/C reads like this: (dose: 75.0 mg/kg/injection, schedule: Q01DX001 (ip), vehicle: saline) 105 % of control; (dose: 150.0 mg/kg/injection, schedule: Q01DX001 (ip), vehicle: saline) 108 % of control.
Regarding `COc1ccc(C2=NNC(=O)C2(C)Br)cc1` (centres undefined), the T/C under setting [4] was 105 % of control, the T/C under setting [5] is 91 % of control and the T/C under setting [6] is 100 % of control.
Take `O=C(O)CC(SC(CC(=O)O)C(F)(F)C(F)(F)C(F)(F)F)C(F)(F)C(F)(F)C(F)(F)F` (centres undefined): the T/C is, setting by setting: under setting [13], 94 % of control; under setting [8], 108 % of control; under setting [14], 97 % of control; under setting [10], 97 % of control; under setting [15], 94 % of control; under setting [12], 88 % of control.
`C=C(Br)CNC(=O)C(C)C`: the T/C is 102 % of control (dose: 5.0 mg/kg/injection, schedule: Q04DX003 (ip), vehicle: saline with Tween-80); 103 % of control (dose: 10.0 mg/kg/injection, schedule: Q04DX003 (ip), vehicle: saline with Tween-80); 102 % of control (dose: 20.0 mg/kg/injection, schedule: Q04DX003 (ip), vehicle: saline with Tween-80).
For `Cc1cccc(NC(=O)C2CCCCC2C(=O)O)c1C` (centres undefined), the T/C by setting is: under setting [1], 100 % of control; under setting [2], 107 % of control; under setting [3], 92 % of control.
On to `O=C(N/N=C\c1ccc([N+](=O)[O-])cc1)c1ccccc1`, for which the T/C reads like this: under setting [13], 97 % of control; under setting [14], 94 % of control; under setting [15], 93 % of control.
For `CCCCCCCCCCOC(=O)C[n+]1cccc(C(N)=O)c1`, the T/C runs as follows: (dose: 12.5 mg/kg/injection, schedule: Q04DX003 (ip), vehicle: saline) 96 % of control; (dose: 25.0 mg/kg/injection, schedule: Q04DX003 (ip), vehicle: saline) 102 % of control; (dose: 50.0 mg/kg/injection, schedule: Q04DX003 (ip), vehicle: saline) 93 % of control.
For the molecule `CCOC(=O)C1CC=CCC1C(=O)OCC` (centres undefined), the T/C by setting is: (dose: 50.0 mg/kg/injection, schedule: Q01DX009 (ip), vehicle: Klucel (hydroxypropylcellulose) (HPC)) 105 % of control; (dose: 75.0 mg/kg/injection, schedule: Q01DX009 (ip), vehicle: Klucel (hydroxypropylcellulose) (HPC)) 108 % of control; (dose: 150.0 mg/kg/injection, schedule: Q01DX009 (ip), vehicle: Klucel (hydroxypropylcellulose) (HPC)) 112 % of control.
On to `O=c1cc(O)nc2ccccn12`, for which the T/C by setting is: under setting [7], 99 % of control; under setting [8], 95 % of control; under setting [9], 97 % of control; under setting [10], 96 % of control; under setting [11], 92 % of control; under setting [12], 91 % of control.
